Test results from PubChem BioAssay AID248 (DTP/NCI, 2004).
Where “and” joins values, the source holds several entries; their conditions need not be identical. Equal values may be shown once. Inconclusive results and toxic doses are left out.

Test system: L1210 leukemia ip in BDF1 mice, survival T/C
Assay: NCI In Vivo Anticancer Drug Screen. Data for tumor model L1210 Leukemia (intraperitoneal) in B6D2F1 (BDF1) mice
Conditions: endpoint: mean survival time, higher = longer survival
Outline: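 Each compound was tested against a transplantable tumor grown in mice. The endpoint was survival, with treated animals benchmarked against vehicle controls as a simple ratio.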

[1] = dose: 100.0 mg/kg/injection, schedule: Q01DX001 (ip), vehicle: saline
[2] = dose: 100.0 mg/kg/injection, schedule: Q04DX002 (ip), vehicle: saline with Tween-80
[3] = dose: 200.0 mg/kg/injection, schedule: Q04DX002 (ip), vehicle: saline with Tween-80
[4] = dose: 400.0 mg/kg/injection, schedule: Q04DX002 (ip), vehicle: saline with Tween-80
[5] = dose: 200.0 mg/kg/injection, schedule: Q01DX001 (ip), vehicle: saline
[6] = dose: 400.0 mg/kg/injection, schedule: Q01DX001 (ip), vehicle: saline
[7] = dose: 100.0 mg/kg/injection, schedule: Q04DX003 (ip), vehicle: saline with Tween-80
[8] = dose: 200.0 mg/kg/injection, schedule: Q04DX003 (ip), vehicle: saline with Tween-80
[9] = dose: 50.0 mg/kg/injection, schedule: Q01DX009 (ip), vehicle: saline with Tween-80
[10] = dose: 100.0 mg/kg/injection, schedule: Q01DX009 (ip), vehicle: saline with Tween-80

Q: Which T/C (dose: 28.0 mg/kg/injection, schedule: Q01DX Z (ip), vehicle: methylcellulose (MC)) does the source give for `CCCCCc1ccc(C)cc1OC(=O)CCl` here?
A: 97 % of control

Q: What about the T/C (dose: 42.0 mg/kg/injection, schedule: Q01DX Z (ip), vehicle: methylcellulose (MC)) of the same compound?
A: 97 % of control

Q: What about the T/C (dose: 62.0 mg/kg/injection, schedule: Q01DX Z (ip), vehicle: methylcellulose (MC)) of the same compound?
A: 92 % of control

Q: For `CCOC(=O)CCC1(CN2c3ccccc3Sc3ccccc32)CCN(C)C1` (configuration not stated), which T/C [1] is on record?
A: 87 % of control

Q: With `O=S(=O)(c1ccc(N=NN2CCOCC2)cc1)N(CCCl)CCCl` as the compound, how does the T/C [2] read?
A: 108 % of control

Q: What about the T/C [3] of the same compound?
A: 115 % of control

Q: What about the T/C [4] of the same compound?
A: 115 % of control

Q: With `COc1ccc(N=Nc2ccccn2)cc1` as the compound, how does the T/C (dose: 50.0 mg/kg/injection, schedule: Q01DX001 (ip), vehicle: Klucel (hydroxypropylcellulose) (HPC)) read?
A: 103 % of control

Q: What about the T/C (dose: 100.0 mg/kg/injection, schedule: Q01DX001 (ip), vehicle: Klucel (hydroxypropylcellulose) (HPC)) of the same compound?
A: 105 % of control

Q: And the T/C (dose: 200.0 mg/kg/injection, schedule: Q01DX001 (ip), vehicle: Klucel (hydroxypropylcellulose) (HPC))?
A: 103 % of control

Q: How did the T/C [2] turn out when `CSc1nc(SCc2ccccc2)[nH]c(=O)n1` was run?
A: 98 % of control

Q: And the T/C [3]?
A: 117 % of control

Q: What about the T/C [4] of the same compound?
A: 98 % of control

Q: `C[n+]1cccc2cc(NC(=O)c3ccc(C(=O)Nc4ccc5c(ccc[n+]5C)c4)cc3)ccc21` was tested. Which T/C (dose: 0.94 mg/kg/injection, schedule: Q01DX Z (ip), vehicle: saline) did it give?
A: 94 % of control

Q: And the T/C (dose: 1.88 mg/kg/injection, schedule: Q01DX Z (ip), vehicle: saline)?
A: 92 % of control

Q: What about the T/C (dose: 30.0 mg/kg/injection, schedule: Q01DX010 (oral), vehicle: saline) of the same compound?
A: 100 % of control

Q: And the T/C (dose: 240.0 mg/kg/injection, schedule: Q01DX010 (oral), vehicle: saline)?
A: 100 % of control

Q: `Nc1ccc(NC(=O)c2ccc3ccccc3c2O)c(Cl)c1` was tested. Which T/C (dose: 100.0 mg/kg/injection, schedule: Q04DX003 (ip), vehicle: Klucel (hydroxypropylcellulose) (HPC)) did it give?
A: 94 % of control

Q: And the T/C (dose: 200.0 mg/kg/injection, schedule: Q04DX003 (ip), vehicle: Klucel (hydroxypropylcellulose) (HPC))?
A: 97 % of control

Q: And the T/C (dose: 400.0 mg/kg/injection, schedule: Q04DX003 (ip), vehicle: Klucel (hydroxypropylcellulose) (HPC))?
A: 94 % of control

Q: `C[n+]1cccc2cc(C(=O)O)ccc21` was tested. Which T/C (dose: 50.0 mg/kg/injection, schedule: Q01DX009 (ip), vehicle: acetone) did it give?
A: 101 % of control

Q: What about the T/C (dose: 100.0 mg/kg/injection, schedule: Q01DX009 (ip), vehicle: acetone) of the same compound?
A: 97 % of control

Q: What about the T/C (dose: 200.0 mg/kg/injection, schedule: Q01DX009 (ip), vehicle: acetone) of the same compound?
A: 93 % of control

Q: Which T/C [2] does the source give for `CC(C)C(N)(CCCN(C)C)c1cccc2ccccc12` (configuration not stated) here?
A: 98 % of control

Q: With `CC(C)Cc1ccc(C(C)C(=O)O)cc1` (configuration not stated) as the compound, how does the T/C [1] read?
A: 100 % of control

Q: What about the T/C [5] of the same compound?
A: 92 % of control

Q: For `Cc1cnc2c(N)nn(C)c2n1`, which T/C (dose: 50.0 mg/kg/injection, schedule: Q01DX009 (ip), vehicle: saline) is on record?
A: 102 % of control

Q: What about the T/C (dose: 100.0 mg/kg/injection, schedule: Q01DX009 (ip), vehicle: saline) of the same compound?
A: 110 % of control

Q: And the T/C (dose: 100.0 mg/kg/injection, schedule: Q04DX003 (ip), vehicle: alcohol)?
A: 102 % of control

Q: What about the T/C (dose: 200.0 mg/kg/injection, schedule: Q04DX003 (ip), vehicle: alcohol) of the same compound?
A: 98 % of control

Q: With `CC(=O)Nc1cc(-c2ccccc2)c(NC(C)=O)c(-c2ccccc2)c1` as the compound, how does the T/C [1] read?
A: 90 % of control

Q: What about the T/C [5] of the same compound?
A: 90 % of control

Q: What about the T/C [6] of the same compound?
A: 94 % of control

Q: `O=C(O)C[As](=O)(O)O` was tested. Which T/C (dose: 30.0 mg/kg/injection, schedule: Q01DX009 (ip), vehicle: saline) did it give?
A: 90 % of control

Q: And the T/C (dose: 60.0 mg/kg/injection, schedule: Q01DX009 (ip), vehicle: saline)?
A: 97 % of control

Q: For `C[N+]1(CC(=O)c2ccc(CCc3ccc(C(=O)C[N+]4(C)CCCCC4)cc3)cc2)CCCCC1`, which T/C (dose: 0.78 mg/kg/injection, schedule: Q01DX009 (ip), vehicle: saline) is on record?
A: 117 % of control

Q: And the T/C (dose: 0.78 mg/kg/injection, schedule: Q04DX002 (ip), vehicle: saline)?
A: 101 % of control

Q: What about the T/C (dose: 1.56 mg/kg/injection, schedule: Q01DX009 (ip), vehicle: saline) of the same compound?
A: 106 % of control

Q: What about the T/C (dose: 1.56 mg/kg/injection, schedule: Q04DX002 (ip), vehicle: saline) of the same compound?
A: 95 % of control

Q: What about the T/C (dose: 3.12 mg/kg/injection, schedule: Q01DX009 (ip), vehicle: saline) of the same compound?
A: 92 % of control

Q: And the T/C (dose: 3.12 mg/kg/injection, schedule: Q04DX002 (ip), vehicle: saline)?
A: 98 % of control and 105 % of control

Q: What does the source list for `CSC(N(C)C)=[N+](C)C`?
A: T/C (dose: 15.0 mg/kg/injection, schedule: Q01DX Z (ip), vehicle: methylcellulose (MC)): 101 % of control; T/C (dose: 30.0 mg/kg/injection, schedule: Q01DX Z (ip), vehicle: methylcellulose (MC)): 105 % of control; T/C (dose: 60.0 mg/kg/injection, schedule: Q01DX Z (ip), vehicle: methylcellulose (MC)): 105 % of control; T/C (dose: 60.0 mg/kg/injection, schedule: Q01DX Z (oral), vehicle: methylcellulose (MC)): 95 % of control; T/C [7]: 100 % of control; T/C (dose: 120.0 mg/kg/injection, schedule: Q01DX Z (ip), vehicle: methylcellulose (MC)): 103 % of control; T/C (dose: 120.0 mg/kg/injection, schedule: Q01DX Z (oral), vehicle: methylcellulose (MC)): 97 % of control; T/C [8]: 107 % of control

Q: Which T/C (dose: 25.0 mg/kg/injection, schedule: Q01DX009 (ip), vehicle: saline with Tween-80) does the source give for `Cn1ncc2c(NCc3ccccc3Cl)ncnc21` here?
A: 102 % of control

Q: And the T/C [9]?
A: 108 % of control

Q: What about the T/C [10] of the same compound?
A: 124 % of control

Q: And the T/C (dose: 200.0 mg/kg/injection, schedule: Q01DX009 (ip), vehicle: other)?
A: 93 % of control

Q: `COc1cc2c(cc1O)/C(=N/O)CCCC2` was tested. Which T/C [9] did it give?
A: 102 % of control

Q: And the T/C [10]?
A: 102 % of control

Q: And the T/C (dose: 200.0 mg/kg/injection, schedule: Q01DX009 (ip), vehicle: saline with Tween-80)?
A: 106 % of control

Q: What about the T/C (dose: 400.0 mg/kg/injection, schedule: Q01DX009 (ip), vehicle: saline with Tween-80) of the same compound?
A: 104 % of control

Q: For `NC(=O)NC(=O)/C=C/C(=O)O`, which T/C [9] is on record?
A: 100 % of control

Q: And the T/C [10]?
A: 94 % of control

Q: What about the T/C [7] of the same compound?
A: 92 % of control

Q: And the T/C [8]?
A: 90 % of control

Q: `NC(=O)c1ccc[n+](CCCl)c1` was tested. Which T/C (dose: 62.5 mg/kg/injection, schedule: Q01DX010 (ip), vehicle: saline) did it give?
A: 94 % of control

Q: And the T/C (dose: 125.0 mg/kg/injection, schedule: Q01DX010 (ip), vehicle: saline)?
A: 93 % of control

Q: Which T/C [1] does the source give for `COC(=O)C(NC(=O)C(C)NC(=O)c1cnc2ccccc2n1)C(C)C` (configuration not stated) here?
A: 91 % of control

Q: And the T/C [5]?
A: 98 % of control

Q: What does the source list for `Cc1ccc(CN(CCO)Cc2ccccc2)cc1`?
A: T/C (dose: 3.12 mg/kg/injection, schedule: Q01DX009 (ip), vehicle: water): 86 % of control; T/C (dose: 6.25 mg/kg/injection, schedule: Q01DX009 (ip), vehicle: water): 89 % of control; T/C (dose: 12.5 mg/kg/injection, schedule: Q01DX009 (ip), vehicle: water): 93 % of control and 100 % of control; T/C (dose: 50.0 mg/kg/injection, schedule: Q01DX009 (ip), vehicle: water): 93 % of control

Q: For `CC(=O)OCC1OC(NC(=O)N(CCCl)N=O)C(OC(C)=O)C(OC(C)=O)C1OC(C)=O` (configuration not stated), which T/C (dose: 6.0 mg/kg/injection, schedule: Q01DX001 (ip), vehicle: saline with Tween-80) is on record?
A: 246 % of control

Q: And the T/C (dose: 9.0 mg/kg/injection, schedule: Q01DX001 (ip), vehicle: saline with Tween-80)?
A: 342 % of control

Q: What about the T/C (dose: 13.0 mg/kg/injection, schedule: Q01DX001 (ip), vehicle: saline with Tween-80) of the same compound?
A: 428 % of control

Q: What about the T/C (dose: 20.0 mg/kg/injection, schedule: Q01DX001 (ip), vehicle: saline with Tween-80) of the same compound?
A: 393 % of control

Q: And the T/C (dose: 30.0 mg/kg/injection, schedule: Q01DX001 (ip), vehicle: saline with Tween-80)?
A: 324 % of control

Q: `COc1ccc(CCNC(c2ccccc2)c2ccccc2)cc1OC` was tested. Which T/C (dose: 100.0 mg/kg/injection, schedule: Q04DX003 (ip), vehicle: saline) did it give?
A: 105 % of control

Q: And the T/C (dose: 200.0 mg/kg/injection, schedule: Q04DX003 (ip), vehicle: saline)?
A: 108 % of control

Q: And the T/C (dose: 400.0 mg/kg/injection, schedule: Q04DX003 (ip), vehicle: saline)?
A: 105 % of control

Q: `Brc1cccc[n+]1CCC[n+]1ccccc1Br` was tested. Which T/C (dose: 2.2 mg/kg/injection, schedule: Q01DX Z (ip), vehicle: saline) did it give?
A: 93 % of control

Q: And the T/C (dose: 3.3 mg/kg/injection, schedule: Q01DX Z (ip), vehicle: saline)?
A: 87 % of control

Q: And the T/C (dose: 5.0 mg/kg/injection, schedule: Q01DX Z (ip), vehicle: saline)?
A: 98 % of control

Q: For `CCCCCCCCCCCCCCCCC1CCc2ccccc21` (configuration not stated), which T/C (dose: 50.0 mg/kg/injection, schedule: Q01DX001 (ip), vehicle: saline) is on record?
A: 101 % of control

Q: What about the T/C [1] of the same compound?
A: 101 % of control

Q: What about the T/C [5] of the same compound?
A: 98 % of control

Q: And the T/C [6]?
A: 101 % of control

Q: What does the source list for `Cc1cc2oc(/C=N\Nc3nc4ccccc4s3)c(C)c2cc1C`?
A: T/C (dose: 100.0 mg/kg/injection, schedule: Q01DX009 (ip), vehicle: Klucel (hydroxypropylcellulose) (HPC)): 94 % of control; T/C (dose: 200.0 mg/kg/injection, schedule: Q01DX009 (ip), vehicle: Klucel (hydroxypropylcellulose) (HPC)): 96 % of control; T/C (dose: 400.0 mg/kg/injection, schedule: Q01DX009 (ip), vehicle: Klucel (hydroxypropylcellulose) (HPC)): 108 % of control
